According to patent US20250042884A1, “3-ARYLOXYL-3-FIVE-MEMBERED HETEROARYL PROPYLAMINE COMPOUND AND USE THEREOF” (Shanghai Leado Pharmatech Co. Ltd., priority 2018, published 2025):

Columns and labels:
HepG-2 cells = experiment: Cytotoxicity test (CCK-8), hepatotoxicity; assay type: cell-based; conditions: HepG2 cell, 72 h
Protocol: (§1) In this example, hepatotoxicity and neurotoxicity of compound I-1 and S-duloxetine were detected.
(§2) HepG-2 and SH-SY5Y cells were placed in 10 cm dish and cultured at 37° C., 5% CO2 in a cell incubator. Trypsin was used to digest and resuspend cells and cells were counted. The cells were transferred to 96-well plate with 8000 cells in a well (100 μl/well), cultured at 37° C., 5% CO2 in a cell incubator for 24 hrs. A serial of gradient concentration dilutions of compound I-1 (prepared in example 2 of the present invention) with 2-fold dilution were prepared, and the system was 100 μL/well. The supernatant of cell culture system in the 96-well plate was removed on the first day, and fresh-prepared drug concentration system was add into culture plate wells (duplicate wells were set). The cells were cultured at 37° C., 5% CO2 in a cell incubator for 72 h. […] Microplate reader was used to measure the absorbance at 450 nm. Data was processed to calculate cytotoxicity, and IC50 was calculated by GraphPad Prism. […]
(§3) A (Dosing): the absorbance of wells containing cells, CCK-8 solution and drug solution.
(§4) A (control): the absorbance of wells containing medium and CCK-8 solution and without cells.
(§5) A (0 Dosing): the absorbance of wells containing cells and CCK-8 solution but without drug solution […]

SH-SY5Y cells = experiment: Cytotoxicity test (CCK-8), neurotoxicity; assay type: cell-based; conditions: 72 h
Protocol: as §1, §2, §3, §4, §5

C57BL/6 mice = experiment: Mice formalin pain model (acute and inflammatory pain); assay type: in vivo; conditions: for Licking claw time (s) in phase II (10-60 min): hydrochloride salt, blank vehicle 349.55 ± 43.09
Excerpt: 150 C57BL/6 mice (male, 9-week aged) were randomly divided into 15 groups, (each group had 10 mice) for the analgesic activity test of 3 compounds in the mice formalin pain model respectively: the compound I-1 group (compound I-1 prepared in Example 2 whose hydrochloride salt was used in the experiment), the S-duloxetine group (its hydrochloride salt was used in the experiment) and the compound C1 group (the compound C1 prepared in Comparative Example 1, whose hydrochloride salt was used in the experiment). Before the start of experiments, the mice were allowed to adapt to the experimental environment for 72 h with free feeding and drinking water. The test drugs were administrated by intraperitoneal injection at a dosage as follows:
Compound I-1 group: blank vehicle (blank saline control), 0.1 mg/kg, 0.5 mg/kg, 1 mg/kg, 5 mg/kg and 10 mg/kg;
S-duloxetine group: blank vehicle (blank saline control), 1 mg/kg, 5 mg/kg, 10 mg/kg and 20 mg/kg;
Compound C1 group: blank vehicle (blank saline control), 0.1 mg/kg, 0.5 mg/kg, 1 mg/kg, 5 mg/kg and 10 mg/kg.
After administration, the mice were placed in a transparent, ventilated plexiglass cylinder for 1 h, and then 20 μl of 4% formalin solution was injected into the left hind plantar of mice of each group by microinjector, claw pain response in mice were real-time recorded by a mini-camera. The time length of licking left claw were used as an indicator of pain response, licking time in 0-10 min (phase I) and 10-60 min (phase II) were observed and recorded, and the statistical analysis was conducted. The half effective dose (ED50) of 3 compounds were calculated: ED50 referred to the dose of the drug which decreased licking time by half as compared with the blank control group. The smaller the ED50 value was, the lower the effective analgesic dose of the compound was and the better the analgesic effect was.

Sprague-Dawley rats = experiment: Rat hot plate pain model (acute pain); assay type: in vivo; conditions: 30 mg/kg intraperitoneal, hydrochloride salt
Protocol: Sprague-Dawley male, mature and unmated rats were placed at hot and cold plate (product model: PE34, US IITC) with constant 53±0.1° C. Mice with painful response such as licking claw, shaking claw or slightly jumping within 10-30 s were selected, and mice which evaded and jumped were abandoned. […] The test compound was freshly prepared on the day of administration. 0.9% NaCl physiological saline solution was prepared as solvent for later use. Appropriate amount of test compound was added into required volume of physiological saline and fully suspended, and the concentration of prepared drug was 1 mg/ml. […] After administration, the latency of heat pain was measured at 0.5 h, 1 h and 2 h after administration. In order to prevent animals from being scalded on the hot plate, the maximum incubation time was set to 30 s. Maximum possible effect (MPE) % was used to evaluate analgesic effect of each compound, i.e., MPE %=[(Post drug latency−baseline latency)/(30−baseline latency)]×100. MPE % at different time points was recorded.

ICR mice = experiment: Mice acetic acid writhing pain model (visceral and inflammatory pain); assay type: in vivo; conditions: 1 h before acetic acid, saline group 49 times
Protocol: Male ICR mice, 22-25 g, were fasted but allowed to drink water freely for 2 h before administration. All ICR mice were weighed and grouped randomly, each group had >10 animals. […] The drug was administrated by gavage based on the weight of mice. 1.5% acetic acid solution (0.1 ml/10 g) was injected intraperitoneally 1 h after administration, and the number of times of visceral pain in each group was observed within 30 min. When concave abdomen, stretched trunk and hind claw, and high buttocks appeared, one number point was recorded. Finally, the number of appearance of the above phenomenon was counted within 30 minutes.

SD rats = experiment: Rat SNL model, mechanical allodynia test (nerve pain); assay type: in vivo; conditions: 1 h after administration, 10 mg/kg oral, hydrochloride salt; control group 3.967 ± 0.775
Protocol: Male SPF grade SD rats, weighed 150 g-180 g, were selected. Aseptic operation during surgery was performed. The animals were anesthetized with sodium pentobarbital (50 mg/kg, intraperitoneal injection). The surgical area of animal waist was shaved and the skin was disinfected three times with iodophor and 70% ethanol. After the skin was dried, the operation was started. Surgical knife was used to make a longitudinal incision at the back of the sacrum of the animal waist to expose the left paraspinal muscles, and stretcher was used to separate muscle tissue to expose the spine. The left spinal nerves L5 and L6 were separated and ligated with a 6-0 silk thread, and the wound was sutured. After the operation, the animals were placed on electrothermal pad, and 5 mL of saline was injected subcutaneously to prevent dehydration. After the animals were fully awakened and could move around freely, the animals were put back in the cage.
After the operation, the animals were adapted in the experimental environment for 15min/day for 3 days.
The animals were weighed to calculate the dose. […] After administration, mechanical allodynia test was performed. The rat was individually placed in a plexiglass box with a grid on the bottom of the box to ensure that the rat claw could be tested. The rats were allowed to adapt the environment for 15 min before test. After the adaptation was completed, the test fiber was used to test the center of the left hind claw of the rat. The test fiber comprises 8 test strengths: 3.61 (0.4 g), 3.84 (0.6 g), 4.08 (1 g), 4.31 (2 g), 4.56 (4 g), 4.74 (6 g), 4.93 (8 g), and 5.18 (15 g). […] During the test, rapid withdrawal of animal claw was recorded as pain response. When the test fiber was removed from animal skin, the withdrawal of animal claw was also recorded as pain response. If animal moved, the pain response was not recorded, and the test was repeated. […]
Mechanical allodynia was expressed as withdrawal threshold (PWT) in rat behavioral test, which was calculated with the following formula: […]

In the case of `CNCC[C@H](Oc1cccc2ccccc12)c1cccs1` [S-duloxetine], the IC50 (HepG-2 cells) is reported as 33.3 µM, the IC50 (SH-SY5Y cells) is reported as 28.6 µM and the “Licking claw time (s) in phase II (10-60 min)” value (from here on “Licking claw time (s)”) (C57BL/6 mice; 1 mg/kg intraperitoneal) is reported as 259.97 ± 64.44 s. The “Licking claw time (s)” value (C57BL/6 mice; 5 mg/kg intraperitoneal) was 230.49 ± 41.31 s, the “Licking claw time (s)” value (C57BL/6 mice; 10 mg/kg intraperitoneal) was 162.83 ± 36.27 s and the “Licking claw time (s)” value (C57BL/6 mice; 20 mg/kg intraperitoneal) was 72.27 ± 17.29 s. For the same compound, the “ED50 in phase II pain” value (C57BL/6 mice; intraperitoneal, dose that decreases licking time by half vs blank control) was 8.00 mg/kg, the MPE % (Sprague-Dawley rats; 0.5 h after administration) was 5.75 ± 5.74% and the MPE % (Sprague-Dawley rats; 1 h after administration) was 7.44 ± 5.12%. The MPE % (Sprague-Dawley rats; 2 h after administration) was 13.53 ± 4.99%, the “number of appearance of writhing reactions (visceral pain) within 30 min” value (ICR mice; 10 mg/kg by gavage) was 27 times and the “number of appearance of writhing reactions (visceral pain) within 30 min” value (ICR mice; 20 mg/kg by gavage) was 21 times. For the same compound, the “PWT(g), claw withdrawal threshold” value (SD rats) was 6.519 ± 2.226 g.
